Measured values published in ChEMBL document CHEMBL3875185, “Structure-anticonvulsant activity studies in the group of (E)-N-cinnamoyl aminoalkanols derivatives monosubstituted in phenyl ring with 4-Cl, 4-CH3 or 2-CH3” (Bioorg Med Chem, 2017).

Tests used:
[1] = target: T1, Adenosine receptor A3 (Homo sapiens) (UniProt P0DMS8); test: Displacement of [125I]AB-MECA from human recombinant adenosine receptor A3 expressed in HEK293 cells at 100 uM measured after 120 mins by scintillation counting method relative to control; type: cell-based
T1 sequence (whole entry): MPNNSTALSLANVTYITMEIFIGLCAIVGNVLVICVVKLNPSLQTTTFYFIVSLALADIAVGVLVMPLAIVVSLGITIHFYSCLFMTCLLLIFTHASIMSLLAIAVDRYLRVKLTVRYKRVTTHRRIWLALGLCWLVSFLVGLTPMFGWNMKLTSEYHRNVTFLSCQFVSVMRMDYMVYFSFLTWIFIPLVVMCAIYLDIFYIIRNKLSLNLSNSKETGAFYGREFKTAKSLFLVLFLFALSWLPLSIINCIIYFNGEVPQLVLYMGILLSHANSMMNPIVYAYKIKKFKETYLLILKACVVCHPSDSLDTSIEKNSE

[2] = target: Prostaglandin E2 receptor EP2 subtype (Homo sapiens) (UniProt P43116); test: Displacement of [3H]PGE2 from human recombinant EP2 receptor expressed in HEK293 cells at 100 uM measured after 120 mins by scintillation counting method relative to control; type: cell-based
[3] = target: 5-hydroxytryptamine receptor 2A (Homo sapiens) (UniProt P28223); test: Displacement of [3H]ketanserin from human recombinant 5HT2A receptor expressed in HEK293 cells at 100 uM measured after 60 mins by scintillation counting method relative to control; type: cell-based
[4] = tested on: Rattus norvegicus; test: Anticonvulsant activity in ip dosed maximal electroshock induced seizure Sprague-Dawley rat model assessed as suppression in hindlimb tonic extension by measuring time to peak effect; type: functional
[5] = tested on: Rattus norvegicus; test: Neurotoxicity in Sprague-Dawley rat assessed as behavioral change at 30 mg/kg, po measured at 4 hrs post dose; type: toxicity, organism-based; conditions: in vivo
[6] = target: T2, Cholecystokinin receptor type A (Homo sapiens) (UniProt P32238); test: Displacement of [125I]CCK-8s from human recombinant CCK1 receptor expressed in CHO cells at 100 uM measured after 60 mins by scintillation counting method relative to control; type: cell-based
T2 sequence (whole entry): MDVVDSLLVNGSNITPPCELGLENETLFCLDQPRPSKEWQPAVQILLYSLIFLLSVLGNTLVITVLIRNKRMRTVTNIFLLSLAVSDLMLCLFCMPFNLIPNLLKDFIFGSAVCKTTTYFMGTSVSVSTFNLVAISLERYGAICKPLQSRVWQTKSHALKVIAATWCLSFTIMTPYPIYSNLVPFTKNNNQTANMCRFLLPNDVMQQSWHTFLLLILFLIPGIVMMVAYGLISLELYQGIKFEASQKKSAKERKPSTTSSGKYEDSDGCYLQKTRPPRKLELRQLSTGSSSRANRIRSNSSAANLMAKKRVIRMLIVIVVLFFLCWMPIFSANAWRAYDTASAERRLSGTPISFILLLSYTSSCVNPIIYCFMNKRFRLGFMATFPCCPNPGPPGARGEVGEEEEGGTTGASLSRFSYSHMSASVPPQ

[7] = tested on: Rattus norvegicus; test: Anticonvulsant activity in ip dosed pentylenetetrazole induced seizure Sprague-Dawley rat model assessed as no observable episode of clonic convulsion of at least 5 secs; type: functional
[8] = target: T3, Endothelin receptor type B (Homo sapiens) (UniProt P24530); test: Displacement of [125I]endothelin-1 from human recombinant ETB receptor expressed in CHO cells at 100 uM measured after 120 mins by scintillation counting method relative to control; type: cell-based
T3 sequence (whole entry): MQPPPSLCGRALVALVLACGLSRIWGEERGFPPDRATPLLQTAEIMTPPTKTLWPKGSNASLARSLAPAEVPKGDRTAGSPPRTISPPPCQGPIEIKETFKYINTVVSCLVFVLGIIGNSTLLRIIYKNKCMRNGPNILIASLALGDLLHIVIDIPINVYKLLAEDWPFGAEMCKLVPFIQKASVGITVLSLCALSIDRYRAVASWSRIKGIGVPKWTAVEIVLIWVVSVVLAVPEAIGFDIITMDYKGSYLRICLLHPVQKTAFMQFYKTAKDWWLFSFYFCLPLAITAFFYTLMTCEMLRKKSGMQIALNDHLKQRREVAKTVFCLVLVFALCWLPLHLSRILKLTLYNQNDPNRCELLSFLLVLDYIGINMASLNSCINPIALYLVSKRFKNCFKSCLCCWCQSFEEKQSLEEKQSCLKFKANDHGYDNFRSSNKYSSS

[9] = target: T4, Endothelin-1 receptor (Homo sapiens) (UniProt P25101); test: Displacement of [125I]endothelin-1 from human recombinant ETA receptor expressed in CHO cells at 100 uM measured after 120 mins by scintillation counting method relative to control; type: cell-based
T4 sequence (whole entry): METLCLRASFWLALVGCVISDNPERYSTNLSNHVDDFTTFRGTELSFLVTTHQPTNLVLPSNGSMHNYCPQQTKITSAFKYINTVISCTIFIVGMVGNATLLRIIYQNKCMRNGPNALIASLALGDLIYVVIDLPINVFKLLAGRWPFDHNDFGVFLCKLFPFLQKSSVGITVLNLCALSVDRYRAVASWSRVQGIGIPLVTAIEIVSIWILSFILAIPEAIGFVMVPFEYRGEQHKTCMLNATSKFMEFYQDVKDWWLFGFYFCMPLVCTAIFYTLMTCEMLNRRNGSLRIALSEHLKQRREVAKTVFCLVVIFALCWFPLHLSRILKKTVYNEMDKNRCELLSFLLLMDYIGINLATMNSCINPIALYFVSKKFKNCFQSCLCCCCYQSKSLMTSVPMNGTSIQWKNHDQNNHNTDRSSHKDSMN

[10] = target: T5, Galanin receptor type 1 (Homo sapiens) (UniProt P47211); test: Displacement of [125I]galanin from human recombinant GAL1 receptor expressed in HEK293 cells at 100 uM measured after 60 mins by scintillation counting method relative to control; type: cell-based
T5 sequence (whole entry): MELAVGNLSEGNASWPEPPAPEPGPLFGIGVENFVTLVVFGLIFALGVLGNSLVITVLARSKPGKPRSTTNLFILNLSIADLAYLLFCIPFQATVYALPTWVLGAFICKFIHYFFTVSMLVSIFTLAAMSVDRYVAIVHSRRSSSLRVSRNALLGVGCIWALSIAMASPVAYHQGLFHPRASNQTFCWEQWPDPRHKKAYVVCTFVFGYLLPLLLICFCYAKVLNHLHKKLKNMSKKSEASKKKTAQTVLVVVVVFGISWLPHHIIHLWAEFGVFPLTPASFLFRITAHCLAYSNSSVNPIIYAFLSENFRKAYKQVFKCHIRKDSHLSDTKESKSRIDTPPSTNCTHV

[11] = tested on: Rattus norvegicus; test: Anticonvulsant activity in po dosed maximal electroshock induced seizure Sprague-Dawley rat model assessed as suppression in hindlimb tonic extension by measuring time to peak effect; type: functional
[12] = target: Mu-type opioid receptor (Homo sapiens) (UniProt P35372); test: Displacement of [3H]DAMGO from human recombinant mu-opioid receptor expressed in HEK293 cells at 100 uM measured after 120 mins by scintillation counting method relative to control; type: cell-based
[13] = target: Prostacyclin receptor (Homo sapiens) (UniProt P43119); test: Displacement of [3H]iloprost from human recombinant IP receptor expressed in HEK293 cells at 100 uM measured after 60 mins by scintillation counting method relative to control; type: cell-based
Chain of Prostacyclin receptor (Homo sapiens) (P43119 whole entry): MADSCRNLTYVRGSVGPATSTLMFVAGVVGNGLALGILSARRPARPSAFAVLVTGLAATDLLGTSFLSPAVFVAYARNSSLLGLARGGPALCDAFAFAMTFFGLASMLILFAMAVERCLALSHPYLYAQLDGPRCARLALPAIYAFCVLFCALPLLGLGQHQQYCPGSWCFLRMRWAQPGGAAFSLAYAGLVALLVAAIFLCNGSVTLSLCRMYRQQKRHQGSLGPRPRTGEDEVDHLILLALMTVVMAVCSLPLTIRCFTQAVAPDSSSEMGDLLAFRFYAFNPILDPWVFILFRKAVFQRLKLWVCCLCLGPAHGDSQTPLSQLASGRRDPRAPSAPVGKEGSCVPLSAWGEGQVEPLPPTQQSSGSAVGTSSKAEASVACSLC

Chain of Prostaglandin E2 receptor EP2 subtype (Homo sapiens) (P43116 whole entry): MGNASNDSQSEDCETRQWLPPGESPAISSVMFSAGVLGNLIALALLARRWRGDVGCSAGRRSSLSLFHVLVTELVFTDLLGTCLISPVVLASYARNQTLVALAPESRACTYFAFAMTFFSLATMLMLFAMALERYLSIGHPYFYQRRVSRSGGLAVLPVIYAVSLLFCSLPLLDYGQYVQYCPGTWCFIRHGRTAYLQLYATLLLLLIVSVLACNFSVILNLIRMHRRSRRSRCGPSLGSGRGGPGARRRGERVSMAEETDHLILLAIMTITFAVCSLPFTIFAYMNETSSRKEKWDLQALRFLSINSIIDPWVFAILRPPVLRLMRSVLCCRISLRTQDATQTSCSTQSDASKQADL
Chain of 5-hydroxytryptamine receptor 2A (Homo sapiens) (P28223 whole entry): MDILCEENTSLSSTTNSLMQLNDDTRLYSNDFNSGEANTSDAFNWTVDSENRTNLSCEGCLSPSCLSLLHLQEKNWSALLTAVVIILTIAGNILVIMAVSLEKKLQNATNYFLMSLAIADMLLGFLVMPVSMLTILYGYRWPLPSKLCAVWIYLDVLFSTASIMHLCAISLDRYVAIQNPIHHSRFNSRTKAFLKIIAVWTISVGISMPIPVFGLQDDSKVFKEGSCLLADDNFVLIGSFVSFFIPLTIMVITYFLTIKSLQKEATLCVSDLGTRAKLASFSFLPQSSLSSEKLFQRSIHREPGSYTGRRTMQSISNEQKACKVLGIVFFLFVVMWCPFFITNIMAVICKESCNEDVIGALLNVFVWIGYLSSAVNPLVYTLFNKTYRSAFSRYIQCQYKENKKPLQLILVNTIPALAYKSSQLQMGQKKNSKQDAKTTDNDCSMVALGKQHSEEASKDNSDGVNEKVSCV
Chain of Mu-type opioid receptor (Homo sapiens) (P35372 whole entry): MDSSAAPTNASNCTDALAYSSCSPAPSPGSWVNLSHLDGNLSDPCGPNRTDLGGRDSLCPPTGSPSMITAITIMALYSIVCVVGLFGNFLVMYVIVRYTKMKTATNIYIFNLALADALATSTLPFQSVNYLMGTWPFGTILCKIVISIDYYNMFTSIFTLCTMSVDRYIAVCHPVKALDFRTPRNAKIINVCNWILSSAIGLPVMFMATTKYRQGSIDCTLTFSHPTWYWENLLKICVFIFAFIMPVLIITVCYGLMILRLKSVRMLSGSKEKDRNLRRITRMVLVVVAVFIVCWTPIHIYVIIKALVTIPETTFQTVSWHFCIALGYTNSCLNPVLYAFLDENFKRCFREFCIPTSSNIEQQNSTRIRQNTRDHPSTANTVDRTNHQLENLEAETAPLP

In the case of `Cc1ccccc1/C=C/C(=O)N[C@@H](C)CO`, the inhibition [1] is reported as 17.1%, the inhibition [2] is reported as 37.8% and the inhibition [3] is reported as 10.3%. For the same compound, the Time [4] was 0.25 h, the Activity [5] was “Non-Toxic” and the inhibition [6] was -5.8%. For the same compound, the ED50 [7] was 24.6 mg/kg, the inhibition [8] was -8.2% and the inhibition [9] was -1%. For the same compound, the inhibition [10] was 1.4%, the Time [11] was 1 h and the inhibition [12] was 0.4%. For the same compound, the inhibition [13] was -5%.

With `CCC(CO)NC(=O)/C=C/c1ccc(Cl)cc1` (centres undefined) the inhibition [1] was 52.5%, the inhibition [2] was 57.6% and the inhibition [3] was 19.3%. For the same compound, the Time [4] was 0.5 h, the Activity [5] was “Non-Toxic” and the inhibition [6] was 11%. For the same compound, the ED50 [7] was 64.4 mg/kg, the inhibition [8] was -10% and the inhibition [9] was 0.3%. For the same compound, the inhibition [10] was -1.2%, the Time [11] was 0.5 h and the inhibition [12] was 23.3%. It also gave an inhibition [13] of 2.3%.

In the case of `CC(O)CNC(=O)/C=C/c1ccc(Cl)cc1` (centres undefined), the inhibition [1] is reported as 29.9%, the inhibition [2] is reported as 29.7% and the inhibition [3] is reported as 12.2%. For the same compound, the Time [4] was 0.5 h, the Activity [5] was “Non-Toxic” and the inhibition [6] was 26%. It also gave an ED50 [7] of 56 mg/kg, an inhibition [8] of -4.6% and an inhibition [9] of 9.3%. It also gave an inhibition [10] of 6.6%, a Time [11] of 0.5 h and an inhibition [12] of 11.3%. For the same compound, the inhibition [13] was 1%.
